Results reported in ChEMBL document CHEMBL1201862, “PubChem BioAssay data set” (2004).
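Assay format: 96-well plates, 48-hour exposure. At the GI50, growth is halved.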 Activity calls are given as the source filed them. Cut-off read from the data, not from the text of the source: active = GI50 up to about 1.1 µM and inactive = higher.

What was measured:
Assay in all cases: NCI anticancer screen, dose series, 48 h
[1] = test system: DLD-1
[2] = test system: DMS-273
[3] = test system: KM-20L2
[4] = test system: LXFL 529
[5] = test system: M19-MEL
[6] = test system: SNB-78
[7] = test system: XF498
[8] = test system: HOP-18
[9] = test system: RXF 631

Compound	GI50 [1]	GI50 [2]	GI50 [3]	GI50 [4]	GI50 [5]	GI50 [6]	GI50 [7]	GI50 [8]	GI50 [9]
COc1ccc(Cn2c(C)nc3c2C(=O)c2ccccc2C3=O)cc1	4.67 µM (inactive)	3.32 µM (inactive)	11.6 µM (inactive)	4.31 µM (inactive)	7.91 µM (inactive)	16.1 µM (inactive)	11.7 µM (inactive)	–	–
O=C1OC(Cc2ccccc2)(N2CCCC2=O)C1c1ccccc1 (stereo unspecified)	55.3 µM (inactive)	–	> 100 µM (inactive)	78.3 µM (inactive)	> 100 µM (inactive)	> 100 µM (inactive)	20.3 µM (inactive)	–	–
CC(=O)OCc1c2ccccc2c(C)c2c1cc(F)c1ccccc12	14.8 µM (inactive)	10.4 µM (inactive)	28.8 µM (inactive)	29.6 µM (inactive)	–	14.3 µM (inactive)	16.6 µM (inactive)	24.6 µM (inactive)	25.8 µM (inactive)
CC(=S)NNC(=O)c1ccncc1	> 100 µM (inactive)	> 100 µM (inactive)	> 100 µM (inactive)	> 100 µM (inactive)	> 100 µM (inactive)	> 100 µM (inactive)	> 100 µM (inactive)	> 100 µM (inactive)	–
Cc1ccc(S(=O)OC23CC4CC(CC(C4)C2)C3)cc1 (stereo unspecified)	> 100 µM (inactive)	> 100 µM (inactive)	> 100 µM (inactive)	> 100 µM (inactive)	> 100 µM (inactive)	> 100 µM (inactive)	> 100 µM (inactive)	> 100 µM (inactive)	72.8 µM (inactive)
Nc1ccc(C(=O)NN2C(=O)C(Cl)C2c2ccc(O)cc2)cc1 (stereo unspecified)	18.1 µM (inactive)	17.2 µM (inactive)	19.9 µM (inactive)	17.8 µM (inactive)	20.1 µM (inactive)	11.9 µM (inactive)	14.7 µM (inactive)	–	–
[O-][Cl+3]([O-])([O-])O.c1ccc(/N=c2\nc(N3CCOCC3)ss2)cc1	14.6 µM (inactive)	17.4 µM (inactive)	16.5 µM (inactive)	12.2 µM (inactive)	18 µM (inactive)	22 µM (inactive)	17.9 µM (inactive)	> 100 µM (inactive)	17.4 µM (inactive)
COc1ccc(CCNCc2cccc(OC)c2OC)cc1OC	> 100 µM (inactive)	> 100 µM (inactive)	> 100 µM (inactive)	> 100 µM (inactive)	> 100 µM (inactive)	> 100 µM (inactive)	> 100 µM (inactive)	–	> 100 µM (inactive)
COC(=O)C1=C(c2cc(OC)c(OC)c(OC)c2)OC(c2cc(OC)c(OC)c(OC)c2)C1 (stereo unspecified)	21.9 µM (inactive)	22.5 µM (inactive)	22.5 µM (inactive)	22.4 µM (inactive)	26.7 µM (inactive)	51.8 µM (inactive)	24.4 µM (inactive)	19.5 µM (inactive)	–
CC(=O)C(CN(C(C)C)C(C)C)C(c1ccccc1)c1c(O)c2ccccc2oc1=O (stereo unspecified)	> 100 µM (inactive)	> 100 µM (inactive)	> 100 µM (inactive)	> 100 µM (inactive)	> 100 µM (inactive)	97.1 µM (inactive)	–	> 100 µM (inactive)	> 100 µM (inactive)
COc1c(CC=C(C)C)c(O)c(C(CC(C)C)c2c(O)c(CC=C(C)C)c(O)c(C(C)=O)c2O)c(O)c1C(C)=O (stereo unspecified)	0.38 µM (active)	0.333 µM (active)	–	–	1.43 µM (inactive)	1.7 µM (inactive)	0.596 µM (active)	0.551 µM (active)	0.425 µM (active)
CC(=O)N1CCN(c2ccc(OCC3COC(Cn4ccnc4)(c4ccc(Cl)cc4Cl)O3)cc2)CC1 (stereo unspecified) [KETOCONAZOLE]	33 µM (inactive)	20.5 µM (inactive)	32.7 µM (inactive)	26.4 µM (inactive)	21.4 µM (inactive)	–	–	> 100 µM (inactive)	–
